Tests used:
[1] = phase III, cytokine-refractory advanced renal carcinoma patients; cited from earlier work
[2] = phase II trial; cited from earlier work
IL-8 = IL-8 in HUVEC supernatants by Luminex; type: cell-based, human; conditions: vitronectin-coated dishes
Method: (§1) Since secreted biomarkers are relevant, the individual candidates were analysed in supernatants of integrin-inhibitor treated cells. HUVEC were treated either DI-17E6 or cilengitide. After different times, culture supernatants were collected and analysed for different biomarker candidates by Western blotting, ELISA or Luminex. Drug-induced biomarker regulation was evaluated in comparison to control cells.
Culture supernatants were collected analysed for IL-8 by Luminex. […] B) Regulation of IL-8 in response to cilengitide (FIG. 6).
HUVECs were cultured o/n in vitronectin-coated dishes and incubated with different concentration of Sutent or Sorafenib for 6 h to 48 h. Culture supernatants were collected analysed for IL-8 by Luminex. A) Regulation of IL-8 in response to Sutent. B) Regulation of IL-8 in response to Sorafenib (FIG. 12).

EDN1 = EDN1 in HUVEC supernatants by ELISA; type: cell-based, human; conditions: vitronectin-coated dishes
Method: as §1
Culture supernatants were collected analysed for EDN1 by ELISA. […] B) Regulation of EDN1 in response to cilengitide (FIG. 8).
HUVECs were cultured o/n in vitronectin-coated dishes and incubated with different concentration of Sutent or Sorafenib for 6 h to 48 h. Culture supernatants were collected analysed for EDN1 by ELISA. A) Regulation of EDN1 in response to Sutent. B) Regulation of EDN1 in response to Sorafenib (FIG. 11).

[3] = test system: Xenograft models of colon, breast, and non-small cell lung cancer (NSCLC); conditions: cited from earlier work
STC-1 = STC-1 protein in HUVEC supernatants by Western blotting; type: cell-based, human; conditions: vitronectin-coated dishes
Method: as §1
Culture supernatants were collected analysed for STC-1 by Western blotting. […] B) Regulation of STC-1 in response to cilengitide (FIG. 4).
HUVECs were cultured o/n in vitronectin-coated dishes and incubated with different concentration of Sutent or Sorafenib for 6 h to 48 h. Culture supernatants were collected analysed for STC-1 by Western blotting. A) Regulation of STC-1 in response to Sutent. B) Regulation of STC-1 in response to Sorafenib (FIG. 10).

ERK1/2 = assay: Western blot of integrin signalling in HUVEC plated on vitronectin: MAPK (ERK1/2); type: cell-based, human; conditions: for phosphorylation of MAPK: HUVEC, Western blot, following treatment
Method: (§2) To identify biomarkers associated with treatment, HUVEC were treated with cilengitide or DI-17E6. […] Gene expression profiles were generated from experiments with each condition being tested in triplicates. For this, RNA was extracted from treated and control cells and hybridized to genome-wide Affymetrix oligonucleotide microarrays to generate gene expression profiles. After preprocessing with the GCRMA algorithm (Wu Z, Journal American Statistical Association 2004; 99: 909-917), Affymetrix GeneChip data were filtered to exclude probe sets with low variability, low signal or poor probe annotation. Genes were specifically filtered to obtain secreted candidates that might be detectable in body fluids in humans and could be monitored in a non-invasive way in patients. […] Genes which show under the given condition an extraordinary response / response change/responsiveness are underlined.
(§3) Besides growth factor stimulation, integrin-mediated adhesion to the extracellular matrix is important to promote cell proliferation, survival, and migration. Upon integrin ligation a wide range of intracellular signaling events are induced, including activation of Ras, MAPK, FAK, Src, Rac/Rho/cdc42 GTPases. To support survival of endothelial cells during angiogenesis, integrins alpha(V) beta(3)/(5) together with FAK are required for a sustained activation of the MAPK cascade (i.e. ERK1/2). […] After 24 h of treatment, cell lysates were prepared and analysed by Western blotting. Effects on signaling pathways were evaluated by comparing the ratio of phosphorylated to total levels of the respective signaling molecule in order to account for potential effects arising from cell detachment.

MCP-1 = MCP-1 in HUVEC supernatants by Luminex; type: cell-based, human; conditions: vitronectin-coated dishes, 6 h to 72 h
Method: as §1
Culture supernatants were collected analysed for MCP-1 by Luminex. […] B) Regulation of MCP-1 in response to cilengitide (FIG. 5).

ADAMTS1 = ADAMTS1 protein in HUVEC supernatants by Western blotting; type: cell-based, human; conditions: vitronectin-coated dishes, 6 h to 72 h, vs control cells
Method: as §1
Culture supernatants were collected analysed for ADAMTS1 by Western blotting.
HUVECs were cultured o/n in vitronectin-coated dishes and incubated with different concentration of cilengitide for 6 h to 72 h. Culture supernatants were collected analysed for ADAMTS1 by Western blotting. A) Cilengitide mediated regulation of ADAMTS1 (65 kD and 85 kD). (FIG. 3).

FAK = assay: Western blot of integrin signalling in HUVEC plated on vitronectin: FAK; type: cell-based, human; conditions: for phosphorylation of FAK: HUVEC, Western blot, following treatment
Method: as §2, §3

activin A = assay: Activin A in HUVEC supernatants by ELISA; type: cell-based, human; conditions: vitronectin-coated dishes, 6 h to 72 h
Method: as §1
Culture supernatants were collected analysed for activin A by ELISA. […] B) Regulation of activin A in response to cilengitide (FIG. 9).

PDGF-BB = PDGF-BB in HUVEC supernatants by ELISA; type: cell-based, human; conditions: vitronectin-coated dishes, 6 h to 72 h
Method: as §1
Culture supernatants were collected analysed for PDGF-BB by ELISA. […] B) Regulation of PDFG-BB in response to cilengitide (FIG. 7).

HUVEC = assay: Gene expression profiles of HUVEC after drug treatment (Affymetrix microarrays); type: cell-based, human; conditions: drug-treated vs non-treated or control-treated cells, filtered for secreted candidates
Text: Gene expression profiles were generated from experiments with each condition being tested in triplicates. For this, RNA was extracted from treated and control cells and hybridized to genome-wide Affymetrix oligonucleotide microarrays to generate gene expression profiles. After preprocessing with the GCRMA algorithm (Wu Z, Journal American Statistical Association 2004; 99: 909-917), Affymetrix GeneChip data were filtered to exclude probe sets with low variability, low signal or poor probe annotation. Genes were specifically filtered to obtain secreted candidates that might be detectable in body fluids in humans and could be monitored in a non-invasive way in patients.

CRP = conditions: DI-17E6-treated vs placebo-treated animals, 6 days
Method: Absolute concentrations of different proteins were measured by Luminex by comparing to respective standards.
Plasma was collected and analysed for CRP and IL-6 by Luminex. A) Regulation of CRP. B) Regulation of IL-6 (FIG. 14).

[4] = test system: angiogenesis in matrigel plugs; assay: bFGF-induced angiogenesis in matrigel plugs in monkeys (hemoglobin content); type: in vivo, Cynomolgus monkeys; conditions: single i.v. infusion at 100, 30, 10, or 3 mg/kg; after 6 days; 5 μg/mL bFGF
Method: In this model, angiogenesis was induced in matrigel plugs by the angiogenic growth factor bFGF. Matrigel plugs containing bFGF were implanted subcutan into the abdomen of healthy Cynomologus monkeys, and the animals were injected with DI-17E6 i.v. at different doses immediately thereafter. Evaluation of angiogenesis was carried out after matrigel implantation by quantification of the hemoglobin content in the matrigel plugs. Each condition was tested in different animals implanted with matrigel plugs.
Angiogenesis was induced in subcutaneous matrigel implants containing 5 μg/mL of bFGF in Cynomolgus monkeys. […] After 6 days, angiogenesis was quantified by measuring the hemoglobin content in the matrigel plugs. * denotes a p-value <0.05 and ** denotes a p-value <0.01 (FIG. 13).

IL-6 = assay: Plasma IL-6 by Luminex in monkeys with matrigel plugs; type: in vivo, Cynomolgus monkeys; conditions: DI-17E6-treated vs placebo-treated animals, 6 days
Text: A) Regulation of CRP. B) Regulation of IL-6 (FIG. 14).

[5] = HUVEC on vitronectin, 24 h, DI-17E6 0.01 to 10 μg/mL, cilengitide 0.01 to 10 μM
[6] = integrin inhibitors, 6 h to 72 h
[7] = integrin inhibitors, 24 h to 72 h

Molecule | phosphorylation of MAPK (ERK1/2) | MCP-1 level in HUVEC supernatants (MCP-1) | ADAMTS1 protein level in HUVEC supernatants (ADAMTS1) | IL-8 level in HUVEC supernatants (IL-8; [6]) | EDN1 level in HUVEC supernatants (EDN1; [6]) | phosphorylation of FAK (FAK) | Activin A level in HUVEC supernatants (activin A) | PDGF-BB level in HUVEC supernatants (PDGF-BB) | STC-1 protein level in HUVEC supernatants (STC-1; [7]) | other results
CNC(=O)c1cc(Oc2ccc(NC(=O)Nc3ccc(Cl)c(C(F)(F)F)c3)cc2)ccn1 [Sorafenib] | – | – | – | – | – | – | – | – | – | side effect: diarrhea [1]: 33%; side effect: fatigue [1]: 26%; side effect: hand-foot skin reactions [1]: 27%; side effect: hypertension [1]: 11%; side effect: rash [1]: 34%; additional patients who experienced tumor shrinkage [2]: 9%; patients who experienced stable disease for at least 4 months [2]: 43%; IL-8 level in HUVEC supernatants (IL-8; kinase inhibitors, 6 h to 48 h): reduced protein levels; EDN1 level in HUVEC supernatants (EDN1; kinase inhibitors, 6 h to 48 h): up-regulated; tumor angiogenesis, as measured by anti-CD31 immunostaining [3]: significant inhibition of tumor angiogenesis; STC-1 protein level in HUVEC supernatants (STC-1; kinase inhibitors, 6 h to 48 h): down-regulated
CC(C)[C@H]1C(=O)N[C@@H](CCCN=C(N)N)C(=O)NCC(=O)N[C@@H](CC(=O)O)C(=O)N[C@H](Cc2ccccc2)C(=O)N1C [cilengitide, cyclo-(Arg-Gly-Asp-DPhe-NMeVal)] | inhibited | down-regulated | up-regulated | down-regulation | down-regulated | inhibited | down-regulated | down-regulated | up-regulated | activation of ERK1/2 (ratio of phosphorylated to total) (ERK1/2; [5]): blocked activation; activation of FAK (ratio of phosphorylated to total) (FAK; [5]): blocked activation; Genes down-regulated in response to treatment (RNA level) (HUVEC): INHBA, EDN1, FST, DKK4, BMP4, MCP1, HHIP, NTN4, PHLDB2, PVR, CYR61, AUTS2, MERTK, FSTL3, APLN, PTX3, ANGPTL4, CTGF, SPOCK, IL8, NRG1, DKK3, CD44, BCHE, BDNF, FBXO4, EFEMP1, STC2; Genes up-regulated in response to treatment (RNA level) (HUVEC): ADAMTS 9, DAF, STC1, ADAMTS1, LAMAS, TCN2, SRPX, ADAM15, GUSB, HYAL2, PLAUR, CD40, NOTCH1, ENPP4
DI-17E6: antibody (CAS No: 1105038-73-0) having the biological characteristics of monoclonal mouse antibody 17E6, inhibits the αv-integrin subunit; improved immunogenicity (antibody, chains of the INN, looked up, V domains shown) VH: QVQLQQSGGELAKPGASVKVSCKASGYTFSSFWMHWVRQAPGQGLEWIGYINPRSGYTEYNEIFRDKATMTTDTSTSTAYMELSSLRSEDTAVYYCASFLGRGAMDYWGQGTTVTVSS VL: DIQMTQSPSSLSASVGDRVTITCRASQDISNYLAWYQQKPGKAPKLLIYYTSKIHSGVPSRFSGSGSGTDYTFTISSLQPEDIATYYCQQGNTFPYTFGQGTKVEIK | inhibited | down-regulated | up-regulated | up-regulated | down-regulated | inhibited | down-regulated | down-regulated | up-regulated | plasma CRP (CRP): up-regulated; angiogenesis (hemoglobin content in the matrigel plugs) [4]: blocked the formation of new blood vessel at all doses; plasma IL-6 (IL-6): up-regulated

Reference: US20120004129A1, “BIOMARKERS FOR INHIBITORS WITH ANTI-ANGIOGENIC ACTIVITY” (Merck Patent GmbH, priority 2008, published 2012)
